The values below are quoted from earlier work in US20140348954A1, “PRODUCT COMPRISING GLUCOMANNAN AND CHITOSAN FOR THE TREATMENT OF GASTROESOPHAGEAL REFLUX DISEASE” (DICOFARM S.P.A., priority 2012, published 2014).

The target in the series is transient receptor potential cation channel subfamily V member 1 (TrpV1) (Homo sapiens, UniProt Q8NER1). Conditions: inflamed human esophagus due to GERD.
Sequence of transient receptor potential cation channel subfamily V member 1 (TrpV1) (Q8NER1 whole entry): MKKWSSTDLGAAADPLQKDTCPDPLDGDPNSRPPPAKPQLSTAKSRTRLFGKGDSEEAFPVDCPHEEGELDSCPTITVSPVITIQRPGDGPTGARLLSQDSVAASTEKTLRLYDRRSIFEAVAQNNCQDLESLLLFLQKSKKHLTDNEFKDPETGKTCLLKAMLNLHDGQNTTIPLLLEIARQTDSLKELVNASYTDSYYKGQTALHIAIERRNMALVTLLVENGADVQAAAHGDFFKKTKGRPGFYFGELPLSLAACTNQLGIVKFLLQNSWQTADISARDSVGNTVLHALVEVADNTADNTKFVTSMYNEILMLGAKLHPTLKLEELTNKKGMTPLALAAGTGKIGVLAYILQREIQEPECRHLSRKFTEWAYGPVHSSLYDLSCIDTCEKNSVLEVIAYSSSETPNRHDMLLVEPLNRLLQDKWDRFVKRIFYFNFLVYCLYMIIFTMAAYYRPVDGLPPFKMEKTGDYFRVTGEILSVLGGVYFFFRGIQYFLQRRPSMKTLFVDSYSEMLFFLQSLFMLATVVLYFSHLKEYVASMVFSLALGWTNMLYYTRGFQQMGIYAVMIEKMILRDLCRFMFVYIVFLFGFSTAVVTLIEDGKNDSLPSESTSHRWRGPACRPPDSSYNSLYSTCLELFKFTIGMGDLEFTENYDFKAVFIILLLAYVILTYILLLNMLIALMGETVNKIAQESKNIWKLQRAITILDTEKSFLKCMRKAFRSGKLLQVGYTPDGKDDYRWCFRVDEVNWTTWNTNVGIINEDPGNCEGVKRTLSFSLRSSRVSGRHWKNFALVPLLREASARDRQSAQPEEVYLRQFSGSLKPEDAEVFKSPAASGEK

Consider `COc1cc(/C=C/C(=O)CC(=O)/C=C/c2ccc(O)c(OC)c2)ccc1O` [curcumin], for which the “action on TrpV1” value was “typical activator”.
